Test results published in US3968100A, “Guanidio derivatives of kasugamycin and their production” (Zaidan Hojin Biseibutsu Kagaku Kenkyu Kai, priority 1972, dated 1976).
In brackets after ≈: the same amount, converted by molar mass. Where two headings read alike, the source gives them in different places.

Tests used:
mice = test: acute toxicity to mice injected intravenously; format: in vivo; settings: 350 mg/kg intravenously, five mice
Text: (§1) The process of Example 3 was repeated using propylenediamine and butylenediamine, respectively in stead of the ethylenediamine. There were obtained 1D-3-O-{2-amino-4-[(2-aminopropyl)-guanidinol]-2,3,4,6-tetradeoxy-α- D-arabino-hexopyranosyl}-chiro-inositol and 1D-3-O-{2-amino-4-[(2-aminobutyl)-guanidinol]-2,3,4,6-tetradeoxy-α-D-arabino-hexopyranosyl]-chiro-inositol in yields of 31.2% and24.6%, respectively.

Escherichia coli NIHJ = test: antibacterial spectrum by the broth dilution method (MIC); format: cell-based; settings: read-out: Minimum inhibitory concentration
Protocol: (§2) The antibacterial spectrum of the new guanidino derivatives of kasugamycin was determined by the broth dilution method and shown in Table 2 below.

[1] = test system: Klebsiella pneumoniae ATCC 10031; test: as above; format: cell-based; settings: ATCC10031; Klebsiella pneumoniae ATCC 10031, broth dilution; read-out: Minimum inhibitory concentration
Protocol: as §2

[2] = test system: Bacillus subtilis ATCC 6633; test: as above; format: cell-based; settings: ATCC6633; Bacillus subtilis ATCC 6633, broth dilution; read-out: Minimum inhibitory concentration
Protocol: as §2

Escherichia coli K-12 = test: as above; format: cell-based; settings: K12; Escherichia coli K-12, broth dilution; read-out: Minimum inhibitory concentration
Protocol: as §2

Proteus vulgaris OX 19 = test: as above; format: cell-based; settings: OX19; Proteus vulgaris OX 19, broth dilution; read-out: Minimum inhibitory concentration
Protocol: as §2

[3] = test system: Pseudomonas fluorescence NIHJB-24; test: as above; format: cell-based
Protocol: as §2

Salmonella paratyphi A = test: as above; format: cell-based; settings: Salmonella enterica, read-out: Minimum inhibitory concentration
Protocol: as §2

Shigella sonnei 191-66 = test: as above; format: cell-based; settings: 19166; Shigella sonnei 191-66, broth dilution; read-out: Minimum inhibitory concentration
Protocol: as §2

[4] = test system: Staphylococcus aureus 6538P; test: as above; format: cell-based; settings: read-out: Minimum inhibitory concentration
Protocol: as §2

[5] = test system: Pseudomonas fluorescens NIHJ B-254; test: activity of eluted fractions against test organism; format: cell-based; settings: purified white powder
Protocol: The isourea derivative dihydrochloride of kasugamycin (500 mg) prepared in Example 2 was dissolved into 10% ethylenediamine in methanol (w/w). The solution was allowed to stand at room temperature for 24 hours, diluted with 80 ml of isopropanol and concentrated to one-half volume under reduced pressure. The solid deposited by concentration was filtered, washed with ethyl ether and dried to give 457 mg of a crude guanidino derivative of kasugamycin as a white powder. The crude powder was dissolved in 4.5 ml of water and adsorbed on a column containing 12 ml of a cation-exchange resin Amberlite IRC-50(NH4 -type). The column was washed with water and followed with 0.3N NH4 OH, and developed with 0.3N H2 SO4. The activities of each eluted fraction were determined using Pseudomonas fluorescens NIHJ B-254 as a test organism. […] And the product formed crystals as the salt of p-hydroxyazobenzene-p'-sulfonic acid.

[6] = test system: Pseudomonas aeruginosa No. 12; test: protection test against infection in mice of Pseudomonas aeruginosa; format: in vivo, mice (dd strain) infected with Pseudomonas aeruginosa No. 12; settings: for ED50: NO.12, ip, Pseudomonas aeruginosa, read-out: curative dose (CD50)
Protocol: The inoculum size of Pesudomonas aeruginosa No.12, which was 10 times of LD50 (3.1 × 10^8 cells/ml, 0.25 ml/mouse), was inoculated intraperitoneally to dd strain of mice (19-21 g body weight), and the treatment with the aforesaid kasugamycin-KG-8 was intraperitoneally injected at 0 and 6 hours after the infection.

[7] = acute toxicity to mice injected intravenously; format: in vivo; settings: mouse, in vivo, iv
Text: as §1

swine = test: growth promoting effect on swine; format: in vivo; settings: pigs, 10 g/ton in ration, 7 weeks
Text: Growth promoting effect of kasugamycin-KG-8 on swine is described below. Kasugamycin-KG-8 was mixed uniformly with ration and administered to pigs to examine its effect on growth promotion and improvement of feed utilization. Fourty-eight young pigs of 1 month old were assigned to two lots of […] pigs each and fed for 7 weeks. Lot 1 (Control): Supplied only with basal ration. Lot 2: Supplied with basal ration + kasugamycin-KG-8 10 g/ton. As the basal ration, one of standard composition was used. Swine raising was managed according to usual method. Each lot of […] pigs were fed in a concrete pen. Ration and drinking water were supplied ad libitum. The index of weight gain indicates beneficial effect of kasugamycin-KG-8 on swing growth promotion.

chicks = test: growth promoting effect on chicks; format: in vivo, chicks of broiler type (White Rock × White Cornish); design: Weight gain: unit not given here; settings: 10 g/ton in ration; for Index of weight gain: control = 100
Protocol: Growth promoting effect of kasugamycin-KG-8 on chicks is tested below. Kasugamycin-KG-8 was mixed uniformly with ration and administered to chicks to examine its effect on growth promotion and improvement of feed utilization. Eighty chicks of broiler type (White Rock × White Cornish) were assigned to two lots of 40 chicks each and for 8 weeks. Lot 1 (Control): Supplied only with basal ration. Lot 2: Supplied with basal ration + kasugamycin-KG-8 10 g/ton. As the basal ration was used one of standard composition. Chick rearing was managed according to the usual method. Ration and drinking water were supplied ad libitum. Tabel 5 indicates beneficial effect of kasugamycin-KG-8 on chick growth promotion.

solubility = format: physicochemical
[8] = NIHJB24, Pseudomonas fluorescence NIHJB-24, broth dilution, read-out: Minimum inhibitory concentration

In the case of CC(N)CNC(=N)NC1CC(N)C(OC2C(O)C(O)C(O)C(O)C2O)OC1C [Example 4, 1D-3-O-{2-amino-4-[(2-aminopropyl)-guanidinol]-2,3,4,6-tetradeoxy-α-D-arabino-hexopyranosyl}-chiro-inositol], the “deaths after intravenous injection” value (mice) is reported as “none of them was dead”.
C[C@H]1O[C@H](O[C@H]2[C@H](O)[C@@H](O)[C@@H](O)[C@H](O)[C@@H]2O)[C@@H](N)C[C@@H]1NC(=N)NCCCN [R1 =--(CH2)3 NH2, R2 =H] showed an MIC (Escherichia coli NIHJ) of 0.39 µg/mL (≈ 0.957 µM) and an MIC [1] of 0.2 µg/mL (≈ 0.491 µM).
In the case of C[C@H]1O[C@H](O[C@H]2[C@H](O)[C@@H](O)[C@@H](O)[C@H](O)[C@@H]2O)[C@@H](N)C[C@@H]1NC(=N)NCCCCN [Example 5, 1D-3-O-{2-amino-4-[(2-aminobutyl)-guanidinol]-2,3,4,6-tetradeoxy-α-D-arabino-hexopyranosyl]-chiro-inositol], the “deaths after intravenous injection” value (mice) is reported as “one of them was dead”.
C[C@H]1O[C@H](O[C@H]2[C@H](O)[C@@H](O)[C@@H](O)[C@H](O)[C@@H]2O)[C@@H](N)C[C@@H]1NC(=N)NCCS(=O)(=O)O [Compound 8] gave an MIC [2] of 100 µg/mL (≈ 218 µM), an MIC (Escherichia coli K-12) greater than 100 µg/mL and an MIC (Escherichia coli NIHJ) greater than 100 µg/mL. It also gave an MIC [1] greater than 100 µg/mL, an MIC (Proteus vulgaris OX 19) greater than 100 µg/mL and an MIC [3, 8] of 50 µg/mL (≈ 109 µM). For the same molecule, the MIC (Salmonella paratyphi A) was 50 µg/mL (≈ 109 µM), the MIC (Shigella sonnei 191-66) was greater than 100 µg/mL and the MIC [4] was 12.5 µg/mL (≈ 27.3 µM).
For C[C@H]1O[C@H](O[C@H]2[C@H](O)[C@@H](O)[C@@H](O)[C@H](O)[C@@H]2O)[C@@H](N)C[C@@H]1NC(=N)NCCCCN [Compound 4], the MIC [2] was 0.78 µg/mL (≈ 1.85 µM), the MIC (Escherichia coli K-12) was 1.56 µg/mL (≈ 3.7 µM) and the MIC (Escherichia coli NIHJ) was 12.5 µg/mL (≈ 29.7 µM). The MIC [1] was 1.56 µg/mL (≈ 3.7 µM), the MIC (Proteus vulgaris OX 19) was 1.56 µg/mL (≈ 3.7 µM) and the MIC [3, 8] was 3.13 µg/mL (≈ 7.43 µM). The MIC (Salmonella paratyphi A) was 0.78 µg/mL (≈ 1.85 µM), the MIC (Shigella sonnei 191-66) was 6.25 µg/mL (≈ 14.8 µM) and the MIC [4] was 0.2 µg/mL (≈ 0.475 µM).
For CNCCN(C)C(=N)N[C@H]1C[C@H](N)[C@@H](O[C@H]2[C@H](O)[C@@H](O)[C@@H](O)[C@H](O)[C@@H]2O)O[C@@H]1C [Compound 3], the MIC [2] was 25 µg/mL (≈ 59.3 µM), the MIC (Escherichia coli K-12) was 100 µg/mL (≈ 237 µM) and the MIC (Escherichia coli NIHJ) was 100 µg/mL (≈ 237 µM). The MIC [1] was 100 µg/mL (≈ 237 µM), the MIC (Proteus vulgaris OX 19) was 50 µg/mL (≈ 119 µM) and the MIC [3, 8] was 50 µg/mL (≈ 119 µM). The MIC (Salmonella paratyphi A) was 50 µg/mL (≈ 119 µM), the MIC (Shigella sonnei 191-66) was 100 µg/mL (≈ 237 µM) and the MIC [4] was 50 µg/mL (≈ 119 µM).
Molecule C[C@H]1O[C@H](O[C@H]2[C@H](O)[C@@H](O)[C@@H](O)[C@H](O)[C@@H]2O)[C@@H](N)C[C@@H]1NC(=N)NCCN [kasugamycin-KG-8, 1D-3-O-{2-amino-4-[(2-aminoethyl)-guanidino]-2,3,4,6-tetradeoxy-α-D-arabino-hexopyranosyl}-chiro-inositol] has an MIC [2] of 0.39 µg/mL (≈ 0.991 µM), an MIC (Escherichia coli K-12) of 0.39 µg/mL (≈ 0.991 µM) and an MIC (Escherichia coli NIHJ) of 0.78 µg/mL (≈ 1.98 µM). The MIC [1] was 0.1 µg/mL (≈ 0.254 µM), the MIC (Proteus vulgaris OX 19) was 0.78 µg/mL (≈ 1.98 µM) and the MIC ([3]; Pseudomonas, NIHJB24, read-out: Minimum inhibitory concentration) was 1.56 µg/mL (≈ 3.97 µM). For the same molecule, the MIC (Salmonella paratyphi A) was 0.2 µg/mL (≈ 0.508 µM), the MIC (Shigella sonnei 191-66) was 1.56 µg/mL (≈ 3.97 µM) and the MIC [4] was 0.78 µg/mL (≈ 1.98 µM). For the same molecule, the “activity relative to kasugamycin” value [5] was “three times active than kasugamycin”, the “Number survived/Number infected” value ([6]; 0.031 mg/mouse at one time, day 0 after infection) was 0/4 and the “Number survived/Number infected” value ([6]; 0.031 mg/mouse at one time, day 1 after infection) was 4/4. The “Number survived/Number infected” value ([6]; 0.031 mg/mouse at one time, day 7 after infection) was 4/4, the “Number survived/Number infected” value ([6]; 0.063 mg/mouse at one time, day 0 after infection) was 0/4 and the “Number survived/Number infected” value ([6]; 0.063 mg/mouse at one time, day 1 after infection) was 1/4. For the same molecule, the “Number survived/Number infected” value ([6]; 0.063 mg/mouse at one time, day 2 after infection) was 2/4, the “Number survived/Number infected” value ([6]; 0.063 mg/mouse at one time, day 7 after infection) was 2/4 and the “Number survived/Number infected” value ([6]; 0.125 mg/mouse at one time, day 0 after infection) was 0/4. The “Number survived/Number infected” value ([6]; 0.125 mg/mouse at one time, day 3 after infection) was 1/4, the “Number survived/Number infected” value ([6]; 0.125 mg/mouse at one time, day 7 after infection) was 1/4 and the “Number survived/Number infected” value ([6]; 0.25 mg/mouse at one time, day 0 after infection) was 0/4. For the same molecule, the “Number survived/Number infected” value ([6]; 0.25 mg/mouse at one time, day 7 after infection) was 0/4, the “Number survived/Number infected” value ([6]; 0.5 mg/mouse at one time, day 0 after infection) was 0/4 and the “Number survived/Number infected” value ([6]; 0.5 mg/mouse at one time, day 7 after infection) was 0/4. For the same molecule, the “Number survived/Number infected” value ([6]; 1.0 mg/mouse at one time, day 0 after infection) was 0/4, the “Number survived/Number infected” value ([6]; 1.0 mg/mouse at one time, day 7 after infection) was 0/4 and the “Number survived/Number infected” value ([6]; 2.0 mg/mouse at one time, day 0 after infection) was 0/4. For the same molecule, the “Number survived/Number infected” value ([6]; 2.0 mg/mouse at one time, day 7 after infection) was 0/4, the ED50 ([6]; mice, intraperitoneal at 0 and 6 hours after infection) was 3.13 mg/kg and the LD50 [7] was 380 mg/kg. For the same molecule, the Feed conversion (swine; control 3.05) was 2.94, the Weight gain (swine; control 8.20) was 9.09 kg and the “Index of weight gain” value (swine; control = 100) was 110.9. For the same molecule, the Weight gain (chicks; grower period for 4 weeks, control 871.8) was 957.8, the “Index of weight gain” value (chicks; grower period for 4 weeks) was 109.9 and the Feed conversion (chicks; grower period, control 3.65) was 3.56. For the same molecule, the Weight gain (chicks; starter period of 4 weeks, control 458.4) was 496.2, the “Index of weight gain” value (chicks; starter period of 4 weeks) was 108.2 and the Feed conversion (chicks; starter period, control 2.15) was 2.15. The Weight gain (chicks; total period through 8 weeks, control 1330.2) was 1454.0, the “Index of weight gain” value (chicks; total period through 8 weeks) was 109.3 and the Feed conversion (chicks; total period, control 3.12) was 3.07. The solubility (solubility; other organic solvents) was “scarcely soluble or insoluble in other organic solvents” and the solubility (solubility; water, dimethylformamide and low alcohols) was “soluble in water, dimethylformamide and low alcohols”.
In the case of C[C@H]1O[C@H](O[C@H]2[C@H](O)[C@@H](O)[C@@H](O)[C@H](O)[C@@H]2O)[C@@H](N)C[C@@H]1NC(=N)C(=O)O [Kasugamycin], the MIC [2] is reported as greater than 100 µg/mL, the MIC (Escherichia coli K-12) is reported as 100 µg/mL (≈ 264 µM) and the MIC (Escherichia coli NIHJ) is reported as 100 µg/mL (≈ 264 µM). It also gave an MIC [1] of 50 µg/mL (≈ 132 µM), an MIC (Proteus vulgaris OX 19) of 100 µg/mL (≈ 264 µM) and an MIC [3, 8] of 3.13 µg/mL (≈ 8.25 µM). For the same molecule, the MIC (Salmonella paratyphi A) was 50 µg/mL (≈ 132 µM), the MIC (Shigella sonnei 191-66) was greater than 100 µg/mL and the MIC [4] was 50 µg/mL (≈ 132 µM). For the same molecule, the ED50 [6] was 35.5 mg/kg.
